Source: patent US8455004B2, “Primary composition comprising a lipophilic bioactive compound” (Nestec S.A., priority 2000, dated 2013)

Assay: Aqueous-phase analysis of the stability of lycopene (decomposition by light and oxygen)
Type: physicochemical
Experimental: It is known that light and oxygen cause lycopene to decompose. An aqueous-phase analysis of the stability of lycopene alone and of lycopene in combination with the whey protein according to the invention was carried out. After one day in the aqueous phase for lycopene alone, only 40% of the lycopene remains, whereas, with the whey, virtually 90% of it, remains.

Lycopene remaining after one day (one day): 40%
Lycopene remaining after two days (two days): virtually completely decomposed
SMILES: CC(C)=CCC/C(C)=C/C=C/C(C)=C/C=C/C(C)=C/C=C/C=C(C)/C=C/C=C(C)/C=C/C=C(\C)CCC=C(C)C [lycopene alone, lycopene]
